Like-named read-outs stand apart in the source and are kept apart here.
Legend:
DU-145 [1] = test: Cell membrane integrity, ethidium homodimer-1 (EthD-1) staining; assay type: cell-based; conditions: DU-145, 0.01%, 10 min
Description: (§1) After determining that the mechanism of cell death of compound 3 is independent of caspases-mediated apoptosis, we evaluated if cell death was due to membrane disruption or lysis using the cell impermeant ethidium homodimer-1 (EthD-1) dye that emits red fluorescence upon binding to DNA [13, 14]. DU-145 and JIMT-1 were treated with compound 3 at 10 and 15 µM, respectively. After 4–6 h, the cells were treated with EthD-1 dye and monitored under fluorescence microscopy.
(§2) Equal numbers of JIMT-1 and DU145 cells were dispersed into 96-well plates. After 24 h the cells were incubated with varying concentration of compounds 3 or 4 (4–6 µM) for 5–6 h. Subsequently, 2 µM of the cell membrane impermeant dye, ethidium homodimer-1 (EthD-1 (Molecular Probes, Eugene, OR, USA) that emits red fluorescence upon binding to DNA was added and the cells analysed by fluorescence microscopy. EthD-1 staining was compared to negative controls with no treatment and positive control treated with 0.01% Triton X-100 for 10 min.
(§3) Figure 5 Evaluation of effect of compound 3 on cell membrane of DU-145 and JIMT-1 cell lines using cell impermeant ethidium homodimer-1 (EthD-1) dye that emits red fluorescence upon binding to DNA.

JIMT-1 [2] = test: as above; assay type: cell-based; conditions: JIMT-1, 0.01%, 10 min
Description: as §1, §2, §3

JIMT-1 [3] = test: MTS cell viability assay, 48 h; assay type: cell-based, human; conditions: JIMT-1, 48 h
Description: (§4) The cells were incubated with increasing concentrations of the compounds (0–30 µM) for 48 h followed by assessment of cell viability using the MTS assay. […] This compound carries a primary amino group at the sn-3 position of the glycerolipid and L-rhamno sugar at the sn-2 position via an α-rhamnosidic linkage.
(§5) The cell lines were cultured from frozen stocks originally obtained from ATCC (Manassas, VA, USA). MDA-MB-231, JIMT-1, DU145, MDA-MB-468, Hs578t and MDA-MB-453 were grown in DMEM medium supplemented with 10% FBS. BT-474 cells were grown in DMEM/F12 medium supplemented with 10% FBS. MiaPaCa2 was cultured in DMEM supplemented with 10% FBS and 2.5% horse serum. All the media contained penicillin/streptomycin. U-251 and U-87 in Eagle MEM supplemented by 10% FBS, 1% Non-essential amino acids, 1 mM sodium pyruvate and 2 mM glutamine. BT-549 was cultured in RPMI 1640 medium supplemented with 10% FBS.
(§6) The effects of the GAELs on the viability of the epithelial cancer cell lines were determined as previously described. Briefly, equal numbers of the cells were dispersed into 96-well plates. After 24 h, the cells were incubated with the compounds (0–30 µM) for 48 h. MTS reagent [3-(4,5-dimethylthiazol-2-yl)-5-(3-carboxymethoxyphenyl)-2-(4-sulfophenyl)-2H-tetrazolium, inner salt; Promega, Madison, WI, USA] (20% v/v) was subsequently added and the plates were incubated for 1–4 h in a CO2 incubator followed by measurement of the medium at OD490 with a plate reader (Molecular Devices). Wells with media but no cells were treated in similar fashion and the values utilized as blank.

DU-145 [4] = test: MTS cell viability assay, 48 h; assay type: cell-based, human; conditions: DU-145, 48 h
Description: as §4, §5
as §6, with “Devices).” for “Devices). Wells with media but no cells were treated in similar fashion and the values utilized as blank.”

MiaPaCa2 [5] = test: MTS cell viability assay, 48 h; assay type: cell-based, human
Description: as §4, §5
as §6, with “Devices).” for “Devices). Wells with media but no cells were treated in similar fashion and the values utilized as blank.”

PC-3 [6] = test: MTS cell viability assay, 48 h; assay type: cell-based, human; conditions: PC-3, 48 h
Description: as §4, §6

[7] = system: human epithelial cancer cell lines: breast (MDA-MB-231, JIMT-1), pancreas (MiaPaCa2) and prostate (DU-145, PC-3); test: MTS cell viability assay, 48 h, across the panel of cell lines; assay type: cell-based; conditions: for CC50: read-out: CC50 values across the cell lines; for Cytotoxicity against the cancer cells: highest dose tested 30 µM, data not shown
Description: as §4, §5, §6

MDA-MB-231 [8] = test: MTS cell viability assay, 48 h; assay type: cell-based, human; conditions: MDA-MB-231, 48 h
Description: […] […] This compound carries a primary amino group at the sn-3 position of the glycerolipid and L-rhamno sugar at the sn-2 position via an α-rhamnosidic linkage.
as §5
as §6, with “After 24 h, the cells were incubated with the compounds (0–30 µM) for 48 h.” left out, “Devices).” for “Devices). Wells with media but no cells were treated in similar fashion and the values utilized as blank.”

MDA-MB-231 [9] = system: MDA-MB-231; set-up: method as in PMID 28177244; conditions: cited from earlier work
JIMT-1 [10] = system: JIMT-1; set-up: method as in PMID 28177244; conditions: cited from earlier work
MiaPaCa2 [11] = system: MiaPaCa2; set-up: method as in PMID 28177244; conditions: cited from earlier work
DU-145 [12] = system: DU-145; set-up: method as in PMID 28177244; conditions: cited from earlier work
PC-3 [13] = system: PC-3; set-up: method as in PMID 28177244; conditions: cited from earlier work
[14] = system: human epithelial cancer cell lines: breast (MDA-MB-231, JIMT-1), pancreas (MiaPaCa2) and prostate (DU-145, PC-3); set-up: method as in PMID 28177244; conditions: range over all cell lines; read-out: CC50 values across the cell lines; cited from earlier work
[15] = Homo sapiens, MTS, read-out: CC50
[16] = Homo sapiens, MIA PaCa-2, MiaPaCa2, 48 h, MTS, read-out: CC50
[17] = Homo sapiens, 48 h, range or bound over all cell lines, 48 h, MTS

Triton X-100 [reference compound]
EthD-1 staining, positive control (DU-145 [1]): stained bright red
EthD-1 staining, positive control (JIMT-1 [2]): stained bright red

CCCCCCCCCCCCCCCCOCC(CN)OC1OC(CO)C(O)C(O)C1O [Compound 5, 3-Amino-1-hexadecyloxyl-2R-O-β-L-glucopyranosyl-sn-glycerol]
CC50 (JIMT-1 [3]; [15]): > 30 µM
CC50 (DU-145 [4]; [15]): > 30 µM
CC50 (MiaPaCa2 [5]; [16]): > 30 µM
CC50 (PC-3 [6]; [15]): > 30 µM
CC50 [7, 17]: > 30 µM
Loss of viability ([7]; depending on the cell line, up to 30 µM, 48 h): 0–35%

OC[C@@H]1OC(O)[C@@H](O)[C@H](O)[C@H]1O (stereo partly drawn) [L-glucose]
Cytotoxicity against the cancer cells [7]: not cytotoxic

CCCCCCCCCCCCCCCCOCC(CNC(=O)CCc1ccc(O)cc1)O[C@@H]1O[C@@H](C)[C@H](O)[C@@H](O)[C@H]1O (stereo partly drawn) [Compound 4]
CC50 (MDA-MB-231 [8]; Homo sapiens, MTS, concentration decreasing cell viability by 50% relative to untreated control, read-out: CC50): 23 µM
CC50 (JIMT-1 [3]; [15]): 25 µM
CC50 (DU-145 [4]; [15]): 30 µM
CC50 (MiaPaCa2 [5]; [16]): > 30 µM
CC50 (PC-3 [6]; [15]): 21.5 µM
CC50 [7, 17]: ≥ 21.5 µM

CCCCCCCCCCCCCCCCOCC(CO[C@@H]1O[C@@H](CO)[C@H](O)[C@@H](O)[C@@H]1N)OC (stereo partly drawn) [Compound 1]
CC50 (MDA-MB-231 [9]): 11 µM
CC50 (JIMT-1 [10]): 6.5 µM
CC50 (MiaPaCa2 [11]): 7.5 µM
CC50 (DU-145 [12]): 12.5 µM
CC50 (PC-3 [13]): 12.5 µM
CC50 [14]: 6.5 to 12 µM

O=C(O)CCCc1ccc(N(CCCl)CCCl)cc1 [Chlorambucil, reference compound]
CC50 (MDA-MB-231 [8]; Homo sapiens): > 150 µM
CC50 (JIMT-1 [3]; Homo sapiens): > 150 µM
CC50 (DU-145 [4]; Homo sapiens): > 150 µM
CC50 (MiaPaCa2 [5]; Homo sapiens, MIA PaCa-2, 48 h): > 150 µM
CC50 (PC-3 [6]; Homo sapiens): > 150 µM
CC50 ([7]; Homo sapiens, 48 h): > 150 µM

OC[C@@H]1OC(O)[C@H](O)[C@H](O)[C@H]1O (stereo partly drawn) [L-mannose]
Cytotoxicity against the cancer cells [7]: not cytotoxic

1-Hexadecyl-2R-methoxyl-3-O-α-L-rhamnopyranosyl-sn-glycerol [Compound 2]
CC50 (MDA-MB-231 [8]; MTS, concentration decreasing cell viability by 50% relative to untreated control, read-out: CC50): 26 µM
CC50 (JIMT-1 [3]; MTS, read-out: CC50): 28 µM
CC50 (DU-145 [4]; MTS, read-out: CC50): 25 µM
CC50 (MiaPaCa2 [5]; MiaPaCa2, 48 h, MTS, read-out: CC50): > 30 µM
CC50 (PC-3 [6]; MTS, read-out: CC50): 25 µM
CC50 ([7]; range or bound over all cell lines, 48 h, MTS): ≥ 21.5 µM

C[C@H](O)[C@H](O)[C@@H](O)[C@@H](O)C=O [rhamnose, L-Rhamnose]
Cytotoxicity against the cancer cells [7]: not cytotoxic

CCCCCCCCCCCCCCCCOCC(CN)OC1OC(CN)C(O)C(O)C1O [Compound 6, 3-Amino-1-hexadecyloxyl-2R-(6′-amino-6′deoxy-O-α-L-mannopyranosyl)-sn-glycerol]
CC50 (JIMT-1 [3]; [15]): 12.5 µM
CC50 (DU-145 [4]; [15]): 17.5 µM
CC50 (MiaPaCa2 [5]; [16]): 19 µM
CC50 (PC-3 [6]; [15]): 25 µM
Times less active than glycolipid 3 ([7]; CC50 compared with 3): 2- to 4
CC50 [7, 17]: 12.5 to 25 µM

CCCCCCCCCCCCCCCCOCC(CO[C@H]1O[C@H](CO)[C@@H](O)[C@H](O)[C@H]1N)OC (stereo partly drawn) [Compound 7]
CC50 (JIMT-1 [10]): 9 µM
CC50 (MiaPaCa2 [11]): 9 µM
CC50 (DU-145 [12]): 9 µM
CC50 (PC-3 [13]): 13.5 µM
